One test relates to NF-κB in Jurkat cells. The test can be described thus: EMSA of TNF-induced NF-κB activation. It is filed as cell-based, human. Particulars: for TNF-induced NF-κB activation: Jurkat cells; for decrease in NF-κB levels: pretreatment with 2 ml (so in the source), TNF 100 pM. The protocol: Next, in order to further study the mechanism by which the active components inhibited tumor cells, the TNF-alpha induced activation of the transcription factor NF-κB was analyzed in Jurkat cells (3×10^6) which had been treated with 1-2 μg/ml of UA-BRF-004-DELEP-F035 and UA-BRF-004Pod-DELEP-F094. The study was carried out as follows: Jurkat cells were pretreated with 1-2 μg/ml of F035 or F094 for 15 h at 37° C. Cells were harvested and resuspended in 1 ml RPMI and treated with 100 pM of TNF-alpha for 30 min at 37° C. After TNF-alpha treatment, nuclear extracts were prepared according to Schreiber et al (1989). Briefly, the cells were washed with ice cold PBS and suspended in 0.4 ml of lysis buffer (10 mM HEPES, pH 7.9, 10 mM KCl, 0.1 mM EDTA, […], 0.1 mM EGTA, 1 mM dithiothreitol, 0.5 mM PMSF, 2 μg/ml of leupeptin, 2 μg/ml of aprotinin and 0.5 mg/ml benzamidine). The cells were allowed to sit on ice for 15 min and 25 μl of 10% Nonidet-40 was added to the cells. The tubes were mixed on the vortex and microcentrifuged for 30 s. The nuclear pellet was resuspended in 25 μl of ice cold nuclear extraction buffer (20 mM HEPES, pH 7.9, 0.4 M NaCl, 1 mM EDTA, 1 mM EGTA, 1 mM dithiothreitol, 1 mM PMSF, 2 μg/ml leupeptin, 2.0 μg/ml aprotinin and 0.5 mg/ml benzamidine) and tubes were incubated on ice with intermittent agitation. The nuclear extract was microcentrifuged for […] at 4° C. and supernatants were stored at −70° C.
An electrophoretic mobility shift assay was performed by incubating the nuclear extracts (7 μg of protein) with ^32P-labeled NF-κB oligonucleotides (SEQ ID NO:1; NF-κB consensus oligonucleotide; Santa Cruz Biotechnology) in presence of 0.5 μg of poly di-dc in a binding buffer (25 mM HEPES, pH 7.9, 0.5 mM EDTA, 0.5 mM dithiothreitol, 1% Nonidet P-40, 5% glycerol and 50 mM NaCl for 20 min at 37° C.) (Nabel and Baltimore, 1987; Collart et al., 1990; Hassanain et al., 1993). The DNA-protein complex formed was separated from free oligonucleotide on 5% native polyacrylamide gel using buffer containing 50 mM Tris, 200 mM glycine and 1 mM EDTA. The gel was fixed in 10% acetic acid and dried and the bands were visualized using autoradiography with intensifying screen at −70° C.
An EMSA to study the effect of crude (F035) and pure extracts D1 and G1 on TNF (Genetech Inc.) induced NF-κB was done as described earlier. Jurkat cells (1×10^6/ml) were treated with different concentrations of crude and pure extracts for 15 hr at 37° C. Next the cells were exposed to 100 pM of TNF for 15 min at 37° C. Nuclear extracts were prepared as described before. Nuclear extracts were incubated with 16 fmol ^32P-end-labeled 45-mer double-stranded NF-κB oligonucleotide from the human immunodeficiency virus long terminal repeat,
for 15 min at 37° C. in the presence of 2 μg of poly (dI-dC). The DNA protein complex was separated from free oligonucleotide on 7.5% native polyacrylamide gels. The radioactive bands from the dried gels were visualized and quantitated by a PhosphoImager (Molecular Dynamics, Sunnyvale, Calif.) using ImageQuant software.
Treatment of Cells with Monoterpene Glycosides. Jurkat cells were taken at 1×10^6/ml in complete medium and treated with 2 μg/ml of F094, monoterpene/triterpene glycoside D1, or monoterpene/triterpene glycoside G1 for 8-16 h at 37° C. At the end of the treatment, cells were washed in complete medium and counted. An equal number of viable cells was used for different experiments.
Preparation of Cytoplasmic and Nuclear Extracts. Jurkat cells (2×10^6/ml) treated with F094 or the isolated monoterpene/triterpene glycosides G1 and/or D1 were exposed to TNF (1 nM for 15 min) at 37° C. After washing the cells in cold PBS, they were suspended in 0.4 ml of cytoplasmic extraction buffer (10 mM HEPES, pH 7.9, 10 mM KCl, 0.1 mM EDTA, 0.1 mM EGTA, 1 mM DTT, 0.5 mM phenylmethylsulfonylfluoride (PMSF), 2 μg/ml of leupeptin, 2 μg/ml aprotinin, 0.5 mg/ml benzamidine) for 15 min on ice. […]
For orientation: A gel shift assay detects complexes by their altered migration in electrophoresis.

For the next test, the system named is AKT in Jurkat cells. The test can be described thus: Western blot of phosphorylated and total AKT. It is filed as cell-based, human. The note with it: 2 μg/ml (F035 printed '2 ml'), 15 hr. The protocol:
The effect of F035 on phosphorylation of AKT was analyzed as follows. Jurkat cells (5×10^6) were serum starved and exposed to F035 for 15 h and 2 h with wortmannin at 37° C. The cells were either induced with cd3XL (cd3 crosslink) or left uninduced for 10 min at 37° C. and lysed in AKT lysis buffer and the proteins were resolved on 8% SDS-PAGE gels and analyzed by western-ECL using phospho-specific AKT (Ser 473; New England Biolabs) and total AKT antibody. An assay of the effect of F035 on p70S6 kinase can be carried out similarly, but using a Phosphoplus p70S6 kinase antibody kit (New England Biolabs) for analysis of p70S6 kinase (Ser 411, thr421/ser424) phosphorylation. […] There was, however, no change in the expression of total AKT.
The expression of total and phosphorylated forms of AKT was determined by western blot analysis. Jurkat cells cultured in medium containing 0.5% FBS were treated with F035 and pure extracts D1 and G1 (2.0 μg/ml) for 15 h at 37° C. The cells were lysed in AKT Iysis buffer (20 mM Tris-HCl, 150 mM NaCI, 1 mM EDTA, 1 mM EGTA, 1% Triton X-100, 2.5 mM sodium pyrophosphate, 1 mM 8-glycerol phosphate, 1 mM Na3VO4, […], 1 mM PMSF pH 7.5). Cellular protein (40 μg) was resolved on 8% SDS-polyacrylamide gel and electrotransferred onto nitrocellulose membrane. Membranes were probed first with phosphospecific AKT (Ser 473) or AKT antibody followed by goat anti rabbit antibody conjugated to horseradish peroxidase. Proteins were detected by chemiluminescence (ECL, Amersham, Arlington Heights, Ill.).

From patent US20060148732A1, “Inhibition of NF-kappaB by triterpene compositions” (priority 2000, published 2006) come the findings set out here.

`C=C[C@](C)(O)CC/C=C(\CO)C(=O)O[C@H]1[C@H](O)[C@@H](O)[C@H](O[C@@](C)(C=C)CC/C=C(\CO)C(=O)O[C@H]2C[C@]3(C(=O)O[C@@H]4O[C@H](CO)[C@@H](O)[C@H](O)[C@H]4O[C@@H]4O[C@@H](C)[C@H](O[C@@H]5O[C@@H](CO)[C@H](O)[C@H]5O)[C@@H](O[C@@H]5O[C@H](CO)[C@@H](O)[C@H](O)[C@H]5O)[C@H]4O)[C@H](O)C[C@]4(C)C(=CC[C@@H]5[C@@]6(C)CC[C@H](O[C@@H]7O[C@H](CO[C@@H]8O[C@H](C)[C@H](O)[C@H](O)[C@H]8O[C@@H]8OC[C@@H](O)[C@H](O)[C@H]8O)[C@@H](O)[C@H](O)[C@H]7NC(C)=O)C(C)(C)[C@@H]6CC[C@]54C)[C@@H]3CC2(C)C)O[C@@H]1C` [Fraction D1]: the “TNF-induced NF-κB activation” value with NF-κB in Jurkat cells is on record as “potent inhibitors”. In addition, the “decrease in NF-κB levels” value in the test with NF-κB in Jurkat cells (Jurkat) came out at 87%. In the test with AKT in Jurkat cells, the AKT phosphorylation result is recorded as “inhibited AKT phosphorylation” and the “total AKT protein” value is “inhibited”.

Regarding `C=C[C@](C)(O)CC/C=C(\C)C(=O)O[C@H]1[C@H](O)[C@@H](O)[C@H](O[C@@](C)(C=C)CC/C=C(\CO)C(=O)O[C@H]2C[C@]3(C(=O)O[C@@H]4O[C@H](CO)[C@@H](O)[C@H](O)[C@H]4O[C@@H]4O[C@@H](C)[C@H](O[C@@H]5O[C@@H](CO)[C@H](O)[C@H]5O)[C@@H](O[C@@H]5O[C@H](CO)[C@@H](O)[C@H](O)[C@H]5O)[C@H]4O)[C@H](O)C[C@]4(C)C(=CC[C@@H]5[C@@]6(C)CC[C@H](O[C@@H]7O[C@H](CO[C@@H]8O[C@H](C)[C@H](O)[C@H](O)[C@H]8O[C@@H]8OC[C@@H](O)[C@H](O)[C@H]8O)[C@@H](O)[C@H](O)[C@H]7NC(C)=O)C(C)(C)[C@@H]6CC[C@]54C)[C@@H]3CC2(C)C)O[C@@H]1C` [Fraction G1], in the test with NF-κB in Jurkat cells (Jurkat), the “potency in inhibiting TNF-induced NF-κB relative to mixture” value is given as “more potent than the mixture” and the “decrease in NF-κB levels” value is listed as 54%. Besides, the “TNF-induced NF-κB activation” value in the test on NF-κB in Jurkat cells is reported as “potent inhibitors”. The “decrease in TNF-induced NF-κB” value in the test on NF-κB in Jurkat cells (Jurkat, 0.5 μg/ml for 16 h, TNF 1 nM) was approximately 50%. In addition, in the test with NF-κB in Jurkat cells (Jurkat, 2 μg/ml for 8 h), the “effect of DTT (100 μM, 2 h pretreatment) on inhibition of NF-κB activation” value is recorded as “reversed”. Further, the “inhibition of TNF-induced NF-κB” value in the test with NF-κB in Jurkat cells (Jurkat, 2 μg/ml for 16 h, TNF 1 nM) is recorded as “almost complete inhibition”. For the same molecule, the “time of maximal inhibition of TNF-induced NF-κB” value in the test on NF-κB in Jurkat cells (Jurkat, 2 μg/ml, 1-16 hours, TNF 1 nM) stood at 16 h. Besides, in the test with AKT in Jurkat cells, the AKT phosphorylation result is “inhibited AKT phosphorylation” and the “total AKT protein” value is reported as “inhibited”.
